Among the data in ChEMBL document CHEMBL3879889, “Compositions and methods for treating cancer” (2009) are IC50, Activity and viability values, retold here.

Data set [1] can be described thus: Inhibition of HPV E6 protein interaction with MAGI-1 PDZ domain1 (unknown origin).
Data set [2] can be described thus: Inhibition of HPV E6 protein interaction with PSD95 PDZ domain1 (unknown origin).
A short description of data set [3]: Inhibition of HPV E6 protein interaction with PSD95 PDZ domain2 (unknown origin).
Data set [4] in a line: Inhibition of HPV E6 protein interaction with PSD95 PDZ domain3 (unknown origin).
A short description of data set [5]: Inhibition of HPV E6 protein interaction with shank1 (unknown origin).
The nature of data set [6]: Inhibition of HPV E6 protein interaction with Tip1 (unknown origin).
The test system of data set [7] is 3Y1. Kind of data set: Antimigratory activity in rat 3Y1 cells transfected with pBLAST E6-16 at 40 uM after 24 hrs. Type of data set: functional, cell-based.
In data set [8] the test system is 3Y1. Briefly: Antiproliferative activity in rat 3Y1 cells transfected with pBLAST E6-16 at 40 uM after 24 to 96 hrs. In kind it is functional, cell-based.
Data set [9] can be described thus: Antiproliferative activity in rat 3Y1 cells transfected with pBLAST at 40 uM after 24 to 96 hrs. Type of data set: cell-based. As to conditions: 3y1, 40 µM.
Data set [10] in a line: Cytotoxicity against HPV E6 transformed human SiHa cells assessed as cell viability at 60 uM treated 24 hrs post plating by WST-1 assay relative to control. In kind it is functional. Conditions: read-out: Activity. On the technique in general: Formazan colour is commonly taken as a measure of viable cells.
Data set [11] in a line: Cytotoxicity against HPV E6 transformed human HeLa cells assessed as cell viability at 60 uM treated 24 hrs post plating by WST-1 assay relative to control. In kind it is functional. As to conditions: read-out: Activity.
Data set [12] in a line: Cytotoxicity against HPV negative human C33A assessed as cell viability at 60 uM treated 24 hrs post plating by WST-1 assay relative to control. Details: species or system C-33-A. As to conditions: C33A cells (HPV negative), read-out: Activity.
Data set [13] is described as follows: Downregulation of E6 protein expression in HPV18 E6 transformed human HeLa cells at 60 to 120 uM after 24 hrs by Western blot method. Type of data set: functional, cell-based. For orientation: A western blot detects proteins with antibodies after separation by electrophoresis.
A short description of data set [14]: Upregulation of p53 expression in HPV18 E6 transformed human HeLa cells at 80 to 120 uM after 24 hrs by immunocytochemical analysis relative to control. Type of data set: functional, cell-based.
Data set [15] relates to HeLa. Briefly: Induction of morphological changes in HPV18 E6 transformed human HeLa cells assessed as cell shrinkage at 80 to 120 uM after 24 hrs. In kind it is functional, cell-based.

Each structure is given as a SMILES string. Active and inactive are the calls of the source. The rule behind the calls is not given here.

In the case of `CCc1cccc2c(C(c3ccccc3OCC(=O)O)c3c[nH]c4c(CC)cccc34)c[nH]c12`, the IC50 in data set [1] was 86.9 µM; in [2], greater than 250 µM; in data set [3], greater than 250 µM; in [4], greater than 250 µM; in [5], greater than 250 µM; in data set [6] it was greater than 250 µM. Further, the outcome in data set [7], in [8], in [13], in data set [14] and in [15] was Active. Also, the Activity result in [9] was “Non-Toxic”. Further, the viability at 60 µM amounted to 74.3% in data set [10] and 70.1% in data set [11]. Also, the viability at 24 h, 60 µM in data set [12] was 104%.

The term IC50 denotes the concentration that inhibits the measured activity by half. High values mean a need for much substance, low ones inhibition by little substance.
